Laboratory results from article PMC11243685, “Synthesis and Enzymatic Evaluation of a Small Library of Substituted Phenylsulfonamido-Alkyl Sulfamates towards Carbonic Anhydrase II” (Molecules, 2024).

Tests used:
[1] = molecular target: T1, bovine carbonic anhydrase II (Bos taurus, UniProt P00921); experiment: Enzymatic assay of bCA II inhibition, absorbance at 415 nm; assay type: biochemical; details: bCA II; 1 μM concentration of the inhibitor; triplicate with three technical replicas;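 note: enzyme is carbonic anhydrase II isolated from bovine erythrocytes, with its activity followed photometrically at 415 nm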
T1 construct: carbonic anhydrase II (bCAII, ≥3000 W-A units/mg from bovine erythrocytes) from Sigma; purchased Sigma (Taufkirchen, Germany); host or cells: isolated from bovine erythrocytes
T1 sequence (P00921 whole entry): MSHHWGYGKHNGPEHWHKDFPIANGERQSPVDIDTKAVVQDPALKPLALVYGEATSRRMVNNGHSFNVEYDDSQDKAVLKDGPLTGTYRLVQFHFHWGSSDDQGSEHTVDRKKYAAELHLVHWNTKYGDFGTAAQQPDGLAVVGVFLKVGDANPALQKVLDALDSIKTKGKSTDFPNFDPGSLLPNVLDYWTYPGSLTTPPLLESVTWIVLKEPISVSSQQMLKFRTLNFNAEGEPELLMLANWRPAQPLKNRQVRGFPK
Protocol: The enzymatic assays have been performed with carbonic anhydrase II (bCAII, ≥3000 W-A units/mg from bovine erythrocytes) from Sigma (Taufkirchen, Germany) using a BMG Labtech Spectrostar Omega apparatus (BMG Labtech, Ortenberg, Germany) measuring λ = 415 nm. Conditions have been described previously [72]. Ki and Ki′ values were determined from Lineweaver–Burk, Dixon and Cornish Bowden plots, respectively.

SMILES | melting point [°C] | inhibition at 1 µM [1] [%]
CC(C)(C)c1ccc(S(=O)(=O)NCCCCCOS(N)(=O)=O)cc1 [52b, 5-[(4-(tert-Butyl)phenyl)sulfonamido]pentyl Sulfamate] | 88 to 89 | 35.9 ± 0.4
CC(C)(C)c1ccc(S(=O)(=O)NCCCCCCOS(N)(=O)=O)cc1 [53b, 6-[(4-(tert-Butyl)phenyl)sulfonamido]hexyl Sulfamate] | 89 to 90 | 29.1 ± 0.9
CC(C)(C)c1ccc(S(=O)(=O)NCCCCCCCOS(N)(=O)=O)cc1 [54b, 7-[(4-(tert-Butyl)phenyl)sulfonamido]heptyl Sulfamate] | 95 to 96 | 28.4 ± 0.4
CC(C)(C)c1ccc(S(=O)(=O)NCCCCCCCCOS(N)(=O)=O)cc1 [55b, 8-[(4-(tert-Butyl)phenyl)sulfonamido]octyl Sulfamate] | 79 to 81 | 21.3 ± 1
CC(C)(C)c1ccc(S(=O)(=O)NCCCCCCCCCOS(N)(=O)=O)cc1 [56b, 9-[(4-(tert-Butyl)phenyl)sulfonamido]nonyl Sulfamate] | 106 to 107 | 10 ± 0.6
CC(C)(C)c1ccc(S(=O)(=O)NCCCCCCCCCCOS(N)(=O)=O)cc1 [57b, 10-[(4-(tert-Butyl)phenyl)sulfonamido]decyl Sulfamate] | 92 to 93 | 20.6 ± 0.6
CC(C)(C)c1cccc(S(=O)(=O)NCCCCCCCCOS(N)(=O)=O)c1 [64b, 8-[(3-(tert-Butyl)phenyl)sulfonamido]octyl Sulfamate] | 57 to 59 | 16 ± 0.4
NS(=O)(=O)OCCCNS(=O)(=O)c1ccc(C2CCCCC2)cc1 [69b, 3-[(4-Cyclohexylphenyl)sulfonamido]propyl Sulfamate] | 113 to 114 | 43.1 ± 1.5
NS(=O)(=O)OCCCCCCNS(=O)(=O)c1ccc(C2CCCCC2)cc1 [72b, 6-[(4-Cyclohexylphenyl)sulfonamido]hexyl Sulfamate] | 86 to 88 | 8.6 ± 0.6
NS(=O)(=O)OCCCCCCCCCNS(=O)(=O)c1ccc(C2CCCCC2)cc1 [75b, 9-[(4-Cyclohexylphenyl)sulfonamido]nonyl Sulfamate] | 88 to 89 | 32.1 ± 0.8
NS(=O)(=O)OCCCCCCCCNS(=O)(=O)c1ccc(C23CC4CC(CC(C4)C2)C3)cc1 [77b, 8-[(4-(Adamantan-1-yl)phenyl)sulfonamido]octyl Sulfamate] | 85 to 86 | 32.6 ± 0.4
NS(=O)(=O)OCCCCCCCCCNS(=O)(=O)c1ccc(C23CC4CC(CC(C4)C2)C3)cc1 [78b, 9-[(4-(Adamantan-1-yl)phenyl)sulfonamido]nonyl Sulfamate] | 94 to 96 | 36.1 ± 1.8
NS(=O)(=O)OCCCCCCCCCCNS(=O)(=O)c1ccc(C23CC4CC(CC(C4)C2)C3)cc1 [79b, 10-[(4-(Adamantan-1-yl)phenyl)sulfonamido]decyl Sulfamate] | 87 to 89 | 40.1 ± 0.8
